{"source": "patent US20240400986A1", "about": "“MEMBRANE BOUND COMPOSITIONS AND METHODS RELATING TO SAME” (FLAGSHIP PIONEERING INNOVATIONS VII, LLC, priority 2021, published 2024)", "key": {"[1]": {"test_system": "neuronal cell line derived from human neuroblastoma", "settings": "neuronal cells, 24 hours"}, "[2]": {"test_system": "neuronal cell line derived from human neuroblastoma", "settings": "human, 24 h"}, "[3]": {"test_system": "neuronal cell line derived from human neuroblastoma", "experiment": "Small molecule compound screen of gigasome production in neuronal monocultures", "settings": "Homo sapiens, 24 h, read-out: Fold Change of Gigasomes Produced vs. DMSO"}, "[4]": {"test_system": "neuronal cells", "experiment": "Gigasome-mediated extraction of stress granule-associated protein HuR (fixed plates, confocal)", "assay_type": "cell-based, human", "settings": "5 μM sodium arsenite, 0.2 μM MG-132, alone or combined, 24 h", "method": "For this paradigm, cells were treated with a low sodium arsenite concentration of 5 μM either alone or in combination with the proteasome inhibitor MG-132 at 0.2 μM. A vehicular control amount of DMSO was added to the media to comparatively study cargo signals within cells and gigasomes. Treatments were carried out in reduced serum-containing media for 24 hours to mimic a chronic exposure to arsenite. The presence of the stress-granule-related cargo within cells and in gigasomes was characterized and quantified by confocal microscopy analysis of 4% paraformaldehyde. Non-specific labeling was blocked by incubation with 5% normal goat serum in PBS in the presence of 0.1% Triton X-100, for 2 h at room temperature, followed by immunolabeling with an antibody against the RNA-binding protein HuR (see Table 12) and incubation with Alexa Fluor® 568 secondary antibodies. Phalloidin Alexa Fluor® 488 was used to mark the proximal plasma membrane. Nuclei were counterstained with DAPI.\nImages were captured using a Zeiss LSM 900 confocal microscope and a 40× objective. For analysis, 10×16-bit images per well were processed to obtain a final total range of 75-200 cells. Composite images were separated in the different channels. The background was subtracted from the red cargo-related channel, as described in Example 13a. The nuclear signal in the blue channel was thresholded using the “Yen” autothreshold algorithm. To measure the nuclear-to-cytosolic translocation of the stress-granule-related protein cargo upon treatment, firstly, the cargo-related nuclear signal was subtracted from the respective red channel image by creating a nuclear selection from the thresholded blue channel image, which was added to ImageJ Manager. The nuclear selection was then transferred to the background-subtracted red channel and the nuclear cargo signal was removed from the image leaving only the cytosolic signal. The cleared red channel image was thresholded using the “default” autothreshold algorithm for downstream particle analysis. To measure the cytosolic cargo signal, a cellular mask was then generated by thresholding the Green/F-actin channel using the “Li” autothreshold method. A cytosolic selection was created, added to ImageJ Manager, and transferred to the background subtracted, nuclear-cleared red channel image. The cytosolic cargo signal (integrated density) was measured and normalized to the number of nuclei counted in each field. Particle analysis was performed as described in Example 13a, using the thresholded green channel to identify particles of interest by filtering by area and circularity and re-directing to the blue and red channel for absence of nuclear signal and eventual presence of disease-related cargo, respectively. The quantity or distribution of objects obtained from the particle analysis was obtained as described in Example 13a."}, "[5]": {"test_system": "neuronal cells", "experiment": "Gigasome-mediated extraction of APP-CTFs upon γ-secretase and proteasome inhibition (fixed plates, confocal)", "assay_type": "cell-based, human", "settings": "γ-secretase inhibitor 5 μM, MG-132 0.1 μM, alone or combined; 24 h; compared to DMSO", "method": "Cells were treated with the γ-secretase inhibitor L-685,458 at 5 μM, either alone or in combination with the proteasome inhibitor MG-132 at 0.1 μM. A vehicular control amount of DMSO was added to the media to comparatively study cargo signals within cells and gigasomes. Treatments were carried out in reduced serum-containing media (3% FBS) for 24 hours. Disease-related cargo presence within cells and in gigasomes was characterized and quantified by confocal microscopy analysis of 4% paraformaldehyde fixed cells, following (immuno)fluorescent labeling of cytosolic, nuclear and cargo-specific protein markers. In some experiments β-III tubulin and Alexa Fluor® 488 phalloidin were used to mark the cytosol and proximal plasma membrane, respectively. To detect APP-CTFs, an antibody against the C-terminus of APP (C-APP) was used (see Table 12). Non-specific labeling was blocked by incubation with 5% normal goat serum in PBS in the presence of 0.05% saponin, for 1 h at room temperature. Primary antibodies were incubated overnight at 4° C., followed by incubation with Alexa Fluor®-conjugated secondary antibodies for 1 hour at room temperature. Nuclei were counterstained with DAPI.\nA range of 5-8 images per well were taken from replicate experiments to capture a final total range of 150-200 cells. […] The cellular cargo fluorescence intensity in the red channel was quantified by subtracting the background signal from each image, using the ImageJ built-in “subtract background” function with a default rolling ball radius of 50 pixel. The cargo signal (integrated density) in the red channel was measured and normalized to the number of nuclei counted in each field. […]\nFor particle analysis, the cytosolic and F-actin/membrane signals were merged into single RGB image, converted to grayscale and then thresholded to create a cellular mask of objects in the field of view, as calculated by the “Li” autothreshold algorithm. […] The quantity or distribution of objects obtained from the particle analysis was divided by the number of cells counted in each field to obtain a normalized quantity or distribution."}}, "note": "Where two headings read alike, the source gives them in different places."}
{"compound": "Cn1cncc1[C@@](N)(c1ccc(Cl)cc1)c1ccc2c(c1)c(-c1cccc(Cl)c1)cc(=O)n2C", "note": "[Tipifarnib]", "values": [{"measurement": "Number of Gigasomes Produced", "setting": "[1]; dose 10 nM", "result": "<35"}, {"measurement": "Number of Gigasomes Produced", "setting": "[1]; dose 100 nM", "result": "55-65"}, {"measurement": "Number of Gigasomes Produced", "setting": "[1]; dose 1000 nM", "result": "65-75"}, {"measurement": "Viability", "setting": "[2]; 10 nM", "result": ">75", "unit": "%"}, {"measurement": "Viability", "setting": "[2]; 100 nM", "result": ">75", "unit": "%"}, {"measurement": "Viability", "setting": "[2]; 1000 nM", "result": "50-75%"}, {"measurement": "fold induction at 0.01 µM", "setting": "[3]", "result": "0.75 to 1"}, {"measurement": "fold induction at 0.1 µM", "setting": "[3]", "result": "1.5 to 1.75"}, {"measurement": "fold induction at 1 µM", "setting": "[3]", "result": "1.75 to 2"}]}
{"compound": "O=[As]O", "note": "[sodium arsenite]", "values": [{"measurement": "HuR cytosolic signal", "setting": "[4]; compared to DMSO (FIG. 7B)", "result": "increased"}, {"measurement": "gigasomes per 1000 cells", "setting": "[4]; fixed plates (FIG. 7C)", "result": 200, "unit": "per 1000 cells"}]}
{"compound": "CC(C)C[C@H](NC(=O)[C@H](Cc1ccccc1)C[C@@H](O)[C@H](Cc1ccccc1)NC(=O)OC(C)(C)C)C(=O)N[C@@H](Cc1ccccc1)C(N)=O", "note": "[γ-secretase inhibitor, L-685,458]", "values": [{"measurement": "intracellular APP-CTF levels (C-APP immunoreactivity)", "setting": "[5]", "result": "increase"}]}
